Data as given in ChEMBL document CHEMBL5726238, “Phenyl and pyridinyl substituted piperidines and piperazines as inhibitors of IDH1 mutants and their use in treating cancer” (2017).

Biological target: Isocitrate dehydrogenase [NADP] cytoplasmic (Homo sapiens, UniProt O75874, R132H)
Experiment: Inhibition Assay: Assays were conducted in a volume of 76 μl assay buffer (150 mM NaCl, 10 mM MgCl2, 20 mM Tris pH 7.5, 0.03% bovine serum albumin) as follows in a standard 384-well plate: To 25 ul of substrate mix (8 uM NADPH, 2 mM aKG), 1 μl of test compound was added in DMSO. […] The reaction was incubated for 50 minutes at room temperature, then 25 μl of detection mix (30 μM resazurin, […]) was added and the mixture further incubated for 5 minutes at room temperature.

Sequence of Isocitrate dehydrogenase [NADP] cytoplasmic (O75874 2-414 R132H limits assumed): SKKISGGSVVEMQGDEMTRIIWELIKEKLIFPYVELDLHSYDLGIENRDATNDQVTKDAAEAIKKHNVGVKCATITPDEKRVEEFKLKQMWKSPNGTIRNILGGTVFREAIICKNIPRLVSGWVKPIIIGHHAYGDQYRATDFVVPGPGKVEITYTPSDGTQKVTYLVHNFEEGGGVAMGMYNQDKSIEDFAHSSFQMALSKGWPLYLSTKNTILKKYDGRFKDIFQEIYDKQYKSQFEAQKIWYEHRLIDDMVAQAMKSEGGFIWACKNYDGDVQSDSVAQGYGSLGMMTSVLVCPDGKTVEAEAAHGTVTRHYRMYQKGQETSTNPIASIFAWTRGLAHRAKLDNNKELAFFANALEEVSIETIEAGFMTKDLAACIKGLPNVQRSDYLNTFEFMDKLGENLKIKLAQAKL

Row | Structure (SMILES) | IC50
1 | C=CC(=O)N1CCc2c(C3CC3)nc(N3CCN(C(=O)C4CC4)[C@H](C4CC4)C3)c(C#N)c2C1 | < 500 nM
2 | CC(C)c1nc(N2CCN(C(=O)Cc3cccs3)CC2)c(C#N)c2c1COC(C)(C)C2 | 1000 to 10000 nM
3 | COCCC(=O)N1CCN(c2nc(C3CC3)c3c(c2C#N)CN(S(C)(=O)=O)CC3)C[C@H]1C1CC1 | < 500 nM

Further lines, results first:

Row | IC50 | Structure (SMILES)
4 | < 500 nM | CC(C)[C@@H]1CN(c2nc(C3CC3)c3c(c2C#N)CC(C)(C)OC3)CCN1C(=O)CCC(=O)OCCO
5 | < 500 nM | C#CC(=O)N1CCc2c(C#N)c(N3CCN(C(=O)CCOC)[C@H](C4CC4)C3)nc(C3CC3)c2C1
